As a reminder, the inhibition is the drop in the measured response relative to a control, in per cent. Broadly, the Ki is the equilibrium dissociation constant of an inhibitor or competing ligand from its target. One may read the IC50 as the concentration that inhibits the measured activity by half.

Holding throughout (assay type): subcellular
Test [1] concerns the target T1, NAD(+) hydrolase SARM1 (Homo sapiens) (UniProt Q6SZW1).
T1 sequence (whole entry): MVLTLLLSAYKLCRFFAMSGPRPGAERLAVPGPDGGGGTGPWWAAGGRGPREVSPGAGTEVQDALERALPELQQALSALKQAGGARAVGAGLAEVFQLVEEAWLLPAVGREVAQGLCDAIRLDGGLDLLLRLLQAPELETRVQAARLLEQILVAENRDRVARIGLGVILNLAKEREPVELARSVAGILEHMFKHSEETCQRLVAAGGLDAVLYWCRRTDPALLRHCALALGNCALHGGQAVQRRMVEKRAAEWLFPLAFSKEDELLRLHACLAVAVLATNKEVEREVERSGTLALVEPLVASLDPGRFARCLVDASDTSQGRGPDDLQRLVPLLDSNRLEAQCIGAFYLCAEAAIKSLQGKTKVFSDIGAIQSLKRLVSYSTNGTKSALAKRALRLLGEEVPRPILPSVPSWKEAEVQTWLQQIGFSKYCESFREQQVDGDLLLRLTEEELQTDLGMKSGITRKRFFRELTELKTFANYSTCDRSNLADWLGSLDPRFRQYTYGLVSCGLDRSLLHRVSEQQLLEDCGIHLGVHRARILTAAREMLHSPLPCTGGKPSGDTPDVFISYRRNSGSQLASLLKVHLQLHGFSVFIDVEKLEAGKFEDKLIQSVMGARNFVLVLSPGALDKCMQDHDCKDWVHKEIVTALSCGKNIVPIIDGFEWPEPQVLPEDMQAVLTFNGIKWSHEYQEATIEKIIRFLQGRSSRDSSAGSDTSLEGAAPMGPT
Nature of the test: Inhibition of recombinant human SARM1 TIR domain (561 to 724 residues) expressed in Escherichia coli C43 (DE3) cells lysates using ENAD as substrate at 25 uM preincubated for 20 mins followed by ENAD addition and measured after 1 hr relative to control.

For test [2], the target named is T2, NAD(+) hydrolase SARM1 (Homo sapiens, UniProt Q6SZW1).
T2 sequence (Q6SZW1 whole entry): T1 sequence (whole entry)
The test can be described thus: Competitive inhibition of recombinant human SARM1 TIR domain (561 to 724 residues) expressed in Escherichia coli C43 (DE3) cells lysates assessed as EADPR formation using ENAD as substrate preincubated for 20 mins followed by ENAD addition and measured at 15 sec interval for 1 hr.

For test [3], the target named is T2, NAD(+) hydrolase SARM1. The test can be described thus: Inhibition of recombinant human SARM1 TIR domain (561 to 724 residues) expressed in Escherichia coli C43 (DE3) cells lysates using ENAD as substrate preincubated for 20 mins followed by ENAD addition and measured at 15 sec interval for 15 mins.
For test [4], the target named is T2, NAD(+) hydrolase SARM1. The test can be described thus: Noncompetitive inhibition of recombinant human SARM1 TIR domain (561 to 724 residues) expressed in Escherichia coli C43 (DE3) cells lysates assessed as EADPR formation using ENAD as substrate preincubated for 20 mins followed by ENAD addition and measured at 15 sec interval for 1 hr.

Where a name gives a salt, the structure may show the parent alone.

Regarding `Nc1ccc(/N=N/c2ccccc2)c(N)n1` [PHENAZOPYRIDINE HYDROCHLORIDE], in test [1], the inhibition was found to be 44%. The Ki at NAD(+) hydrolase SARM1 [2] is 70 µM.

In the case of `C[C@H]1c2cccc(O)c2C(=O)C2=C(O)[C@]3(O)C(=O)C(C(N)=O)=C(O)[C@@H](N(C)C)[C@@H]3[C@@H](O)[C@@H]21`, the inhibition in test [1] amounted to 26%.

On to `NC(=O)N/N=C/c1ccc([N+](=O)[O-])o1` [NITROFURAZONE], for which, in test [1], the inhibition was 27%. Besides, on NAD(+) hydrolase SARM1 [3], the IC50 came to 90 µM. The Ki at NAD(+) hydrolase SARM1 [4] amounted to 120 µM.
